This is an account of results in patent US12485121B2, “Antiviral agents for the treatment and prevention of HIV infection” (Pharmasyntez, Joint Stock Company, priority 2020, dated 2025).

The first assay concerns HIV-1 subtype A strain 12RU 69831. The experiment in a line: Inhibition of HIV-1 reproduction / protection of infected MT-4 cells (living cell concentration, p24 production). The following applies: Human immunodeficiency virus 1, MT4, MT-4 cells infected with HIV-1 at a constant virus dose of 300 CCID50; read-out: Activity against HIV-1 12RU 69831 strain (subtype A). It counts as cell-based. The gist of the method: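 MT-4 cells infected with HIV-1 subtype A 12RU 69831 at a constant 300 CCID50 dose and treated with various compound concentrations. Protection measured as change in living cell concentration; viral replication measured as p24 production.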
Take `Cc1cc(/C=C/C#N)cc(C)c1Oc1nc(Nc2ccc(C#N)cc2)nc2c1CCN(C(=O)OC(C)(C)C)CC2` [BB0274009, Tert-butyl 2-((4-cyanophenyl)amino)-4-(4-(2-cyanovinyl)-2,6-dimethylphenoxy)-8,9-dihydro-5H-pyrimido[4,5-d]azepine-7(6H)-carboxylate]: the IC50 was found to be 291 µM.

With `Cc1cc(C#N)cc(C)c1Oc1nc(Nc2ccc(C#N)cc2)nc2c1CCN(C(=O)[C@H]1CCCN1C(=O)OC(C)(C)C)CC2` [BB0274064, (R)-Tert-butyl 2-(4-(4-cyano-2,6-dimethylphenoxy)-2-((cyanophenyl)amino)-6,7,8,9-tetrahydro-5H-pyrimido[4,5-d]azepine-7-carbonyl)pyrrolidine-1-carboxylate], the IC50 was 493 µM.

For the compound `Cc1cc(C#N)cc(C)c1Oc1nc(Nc2ccc(C#N)cc2)nc2c1CN(C(=O)[C@H](NC(=O)OC(C)(C)C)C(C)C)CC2` [BB0274126, (R)-Tert-butyl (1-(4-(4-cyano-2,6-dimethylphenoxy)-2-((4-cyanophenyl)amino)-7,8-dihydropyrido[4,3-d]pyrimidine-6(5H)-yl)-3-methyl-1-oxobutane-2-yl)carbamate], the IC50 worked out at 45.3 µM.

For the compound `Cc1cc(C#N)cc(C)c1Oc1nc(Nc2ccc(C#N)cc2)nc2c1CCN(CC#N)CC2` [BB0274095, 4-((7-(cyanomethyl)-2-((4-cyanophenyl)amino)-6,7,8,9-tetrahydro-5H-pyrimido[4,5-d]azepine-4-yl)oxy)-3,5-dimethylbenzonitrile], the IC50 was found to be 11.3 µM.

Take `Cc1cc(C#N)cc(C)c1Oc1nc(Nc2ccc(C#N)cc2)nc2c1CCN(Cc1ccccn1)CC2` [BB0274014, 4-((2-((4-Cyanophenyl)amino)-7-(pyridine-2-ylmethyl)-6,7,8,9-tetrahydro-5H-pyrimido[4,5-d]azepine-4-yl)oxy)-3,5-dimethylbenzonitrile]: the IC50 was found to be 5.98 µM.

In the case of `Cc1cc(C#N)cc(C)c1Oc1nc(Nc2ccc(C#N)cc2)nc2c1CN(C(=O)C(N)Cc1cnc[nH]1)CC2` (stereo not shown) [BB0275622, 4-({6-[2-Amino-3-(1H-imidazole-5-yl)propanoyl]-2-[(4-cyanophenyl)amino]-5H,6H,7H,8H-pyrido[4,3-d]pyrimidine-4-yl}oxy)-3,5-dimethylbenzonitrile], the IC50 amounted to 0.032 µM.

Take `Cc1cc(C#N)cc(C)c1Oc1nc(Nc2ccc(C#N)cc2)nc2c1CN(C(=O)[C@H](C)N)CC2` [BB0274102, (S)-4-((6-(2-Aminopropanoyl)-2-((4-cyanophenyl)amino)-5,6,7,8-tetrahydropyrido[4,3-d]pyrimidine-4-yl)oxy)-3,5-dimethylbenzonitrile]: the IC50 turned out to be 0.00341 µM.

In the case of `Cc1cc(C#N)cc(C)c1Oc1nc(Nc2ccc(C#N)cc2)nc2c1CCN(C1CCOCC1)CC2` [BB0274072, 4-((2-((4-Cyanophenyl)amino)-7-(tetrahydro-2H-pyran-4-yl)-6,7,8,9-tetrahydro-5H-pyrimido[4,5-d]azepine-4-yl)oxy)-3,5-dimethylbenzonitrile], the IC50 came to 4.07 µM.

Turning to `Cc1cc(C#N)cc(C)c1Oc1nc(Nc2ccc(C#N)cc2)nc2c1CN(C(=O)C1CCCN1)CC2` (stereo not shown) [BB0274098, 4-((2-((4-Cyanophenyl)amino)-6-(pyrrolidine-2-carbonyl)-5,6,7,8-tetrahydropyrido[4,3-d]pyrimidine-4-yl)oxy)-3,5-dimethylbenzonitrile], the IC50 is 0.046 µM.

On to `Cc1cc(C#N)cc(C)c1Oc1nc(Nc2ccc(C#N)cc2)nc2c1CN(C(=O)[C@@H](N)Cc1ccc(O)cc1)CC2` [BB0274125, (S)-4-((6-(2-Amino-3-(4-hydroxyphenyl)propanoyl)-2-((4-cyanophenyl)amino)-5,6,7,8-tetrahydropyrido[4,3-d]pyrimidine-4-yl)oxy)-3,5-dimethylbenzonitrile], for which the IC50 worked out at 82.1 µM.

Turning to `Cc1cc(C#N)cc(C)c1Oc1nc(Nc2ccc(C#N)cc2)nc2c1CN(C(=O)[C@H](CCCCNC(=O)OC(C)(C)C)NC(=O)OC(C)(C)C)CC2` [BB0274130, (S)-Di-tert-butyl (6-(4-(4-cyano-2,6-dimethylphenoxy)-2-((4-cyanophenyl)amino)-7,8-dihydropyrido[4,3-d]pyrimidine-6(5H)-yl)-6-oxohexane-1,5-diyl)dicarbamate], the IC50 was 240 µM.

`Cc1cc(C#N)cc(C)c1Oc1nc(Nc2ccc(C#N)cc2)nc2c1CN(C(=O)[C@H](C)NC(=O)OC(C)(C)C)CC2` [BB0274101, (S)-Tert-butyl (1-(4-(4-cyano-2,6-dimethylphenoxy)-2-((4-cyanophenyl)amino)-7,8-dihydropyrido[4,3-d]pyrimidine-6(5H)-yl)-1-oxopropane-2-yl)carbamate]: the IC50 was found to be 8.8 µM.

The assay is the same for the next values; noted with them: MT-4 cells infected with HIV-1 at a constant virus dose of 300 CCID50; read-out: Activity against HIV-1 12RU 69831 strain (subtype A).
As for `Cc1cc(C#N)cc(C)c1Oc1nc(Nc2ccc(C#N)cc2)nc2c1CCNCC2` [BB0273976, 4-((2-((4-Cyanophenyl)amino)-6,7,8,9-tetrahydro-5H-pyrimido[4,5-d]azepine-4-yl)oxy)-3,5-dimethylbenzonitrile], the IC50 amounted to 0.00583 µM.
